This note sets out measurements from ChEMBL document CHEMBL1909046, “DrugMatrix in vitro pharmacology data”.

Sequence of Delta-type opioid receptor (P41143 whole entry): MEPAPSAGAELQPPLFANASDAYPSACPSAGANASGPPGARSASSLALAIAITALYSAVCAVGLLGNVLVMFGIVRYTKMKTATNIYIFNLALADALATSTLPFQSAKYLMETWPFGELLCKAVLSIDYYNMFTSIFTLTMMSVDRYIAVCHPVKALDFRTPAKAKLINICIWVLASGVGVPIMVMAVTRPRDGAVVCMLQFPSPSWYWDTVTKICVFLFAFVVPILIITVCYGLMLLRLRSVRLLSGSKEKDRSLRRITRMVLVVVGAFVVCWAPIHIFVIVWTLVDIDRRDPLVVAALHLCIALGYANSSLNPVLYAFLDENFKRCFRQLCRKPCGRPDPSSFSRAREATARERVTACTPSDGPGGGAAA
Sequence of Matrix metalloproteinase-9 (P14780 whole entry): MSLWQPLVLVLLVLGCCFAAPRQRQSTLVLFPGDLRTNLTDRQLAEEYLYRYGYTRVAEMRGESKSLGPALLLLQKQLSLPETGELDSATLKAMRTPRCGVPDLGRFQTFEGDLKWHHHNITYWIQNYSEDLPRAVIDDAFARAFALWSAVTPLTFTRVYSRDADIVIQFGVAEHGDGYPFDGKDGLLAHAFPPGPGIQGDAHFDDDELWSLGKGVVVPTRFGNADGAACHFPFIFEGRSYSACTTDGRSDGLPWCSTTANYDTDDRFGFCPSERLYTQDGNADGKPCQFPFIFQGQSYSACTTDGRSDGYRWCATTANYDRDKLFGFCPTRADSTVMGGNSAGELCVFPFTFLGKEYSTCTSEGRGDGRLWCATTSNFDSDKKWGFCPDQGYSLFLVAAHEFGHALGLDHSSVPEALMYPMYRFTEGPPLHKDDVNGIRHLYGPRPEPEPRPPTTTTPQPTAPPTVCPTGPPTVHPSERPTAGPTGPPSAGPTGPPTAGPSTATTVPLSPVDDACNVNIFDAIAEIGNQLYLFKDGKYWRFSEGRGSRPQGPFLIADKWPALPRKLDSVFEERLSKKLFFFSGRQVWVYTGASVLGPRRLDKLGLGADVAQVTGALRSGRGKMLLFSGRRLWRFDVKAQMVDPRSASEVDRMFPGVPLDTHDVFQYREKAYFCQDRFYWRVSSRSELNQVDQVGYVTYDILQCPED
Sequence of Nitric oxide synthase 1 (P29476 whole entry): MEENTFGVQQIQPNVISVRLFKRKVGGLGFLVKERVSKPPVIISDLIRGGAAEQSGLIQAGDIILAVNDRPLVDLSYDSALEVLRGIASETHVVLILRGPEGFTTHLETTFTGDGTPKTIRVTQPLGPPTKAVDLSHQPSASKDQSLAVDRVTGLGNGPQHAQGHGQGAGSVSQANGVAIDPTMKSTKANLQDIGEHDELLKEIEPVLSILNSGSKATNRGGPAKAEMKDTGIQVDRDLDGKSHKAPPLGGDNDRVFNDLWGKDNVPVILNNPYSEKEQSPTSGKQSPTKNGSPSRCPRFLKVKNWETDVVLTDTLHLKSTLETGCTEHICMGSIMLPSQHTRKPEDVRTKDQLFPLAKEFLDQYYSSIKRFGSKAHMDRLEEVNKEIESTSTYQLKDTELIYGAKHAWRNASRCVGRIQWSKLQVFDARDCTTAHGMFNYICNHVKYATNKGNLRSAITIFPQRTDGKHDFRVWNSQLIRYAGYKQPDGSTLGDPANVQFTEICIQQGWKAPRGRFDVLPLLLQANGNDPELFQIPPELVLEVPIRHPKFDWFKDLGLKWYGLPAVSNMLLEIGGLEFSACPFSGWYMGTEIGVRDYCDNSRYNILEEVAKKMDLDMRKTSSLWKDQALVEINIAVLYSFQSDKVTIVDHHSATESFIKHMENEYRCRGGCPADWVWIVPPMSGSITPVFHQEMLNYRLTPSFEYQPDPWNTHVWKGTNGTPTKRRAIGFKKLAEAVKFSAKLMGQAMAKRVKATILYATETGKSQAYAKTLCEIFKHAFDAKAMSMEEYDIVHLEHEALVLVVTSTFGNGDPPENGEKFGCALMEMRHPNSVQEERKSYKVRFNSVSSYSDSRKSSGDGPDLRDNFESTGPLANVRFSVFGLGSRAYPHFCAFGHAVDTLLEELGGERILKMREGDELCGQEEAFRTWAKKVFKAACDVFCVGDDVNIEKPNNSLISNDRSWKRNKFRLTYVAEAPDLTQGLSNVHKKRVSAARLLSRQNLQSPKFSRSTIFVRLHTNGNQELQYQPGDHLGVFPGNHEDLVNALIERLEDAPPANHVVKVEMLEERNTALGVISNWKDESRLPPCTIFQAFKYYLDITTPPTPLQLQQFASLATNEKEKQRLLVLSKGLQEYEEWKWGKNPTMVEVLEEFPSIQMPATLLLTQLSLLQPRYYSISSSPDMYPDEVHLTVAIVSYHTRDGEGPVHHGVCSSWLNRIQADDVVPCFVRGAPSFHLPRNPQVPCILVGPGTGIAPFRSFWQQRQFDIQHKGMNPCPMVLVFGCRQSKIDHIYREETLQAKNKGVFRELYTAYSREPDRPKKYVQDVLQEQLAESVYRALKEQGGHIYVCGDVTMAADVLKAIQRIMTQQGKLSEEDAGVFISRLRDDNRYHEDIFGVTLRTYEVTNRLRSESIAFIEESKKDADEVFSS
Sequence of Vascular endothelial growth factor receptor 1 (P17948 whole entry): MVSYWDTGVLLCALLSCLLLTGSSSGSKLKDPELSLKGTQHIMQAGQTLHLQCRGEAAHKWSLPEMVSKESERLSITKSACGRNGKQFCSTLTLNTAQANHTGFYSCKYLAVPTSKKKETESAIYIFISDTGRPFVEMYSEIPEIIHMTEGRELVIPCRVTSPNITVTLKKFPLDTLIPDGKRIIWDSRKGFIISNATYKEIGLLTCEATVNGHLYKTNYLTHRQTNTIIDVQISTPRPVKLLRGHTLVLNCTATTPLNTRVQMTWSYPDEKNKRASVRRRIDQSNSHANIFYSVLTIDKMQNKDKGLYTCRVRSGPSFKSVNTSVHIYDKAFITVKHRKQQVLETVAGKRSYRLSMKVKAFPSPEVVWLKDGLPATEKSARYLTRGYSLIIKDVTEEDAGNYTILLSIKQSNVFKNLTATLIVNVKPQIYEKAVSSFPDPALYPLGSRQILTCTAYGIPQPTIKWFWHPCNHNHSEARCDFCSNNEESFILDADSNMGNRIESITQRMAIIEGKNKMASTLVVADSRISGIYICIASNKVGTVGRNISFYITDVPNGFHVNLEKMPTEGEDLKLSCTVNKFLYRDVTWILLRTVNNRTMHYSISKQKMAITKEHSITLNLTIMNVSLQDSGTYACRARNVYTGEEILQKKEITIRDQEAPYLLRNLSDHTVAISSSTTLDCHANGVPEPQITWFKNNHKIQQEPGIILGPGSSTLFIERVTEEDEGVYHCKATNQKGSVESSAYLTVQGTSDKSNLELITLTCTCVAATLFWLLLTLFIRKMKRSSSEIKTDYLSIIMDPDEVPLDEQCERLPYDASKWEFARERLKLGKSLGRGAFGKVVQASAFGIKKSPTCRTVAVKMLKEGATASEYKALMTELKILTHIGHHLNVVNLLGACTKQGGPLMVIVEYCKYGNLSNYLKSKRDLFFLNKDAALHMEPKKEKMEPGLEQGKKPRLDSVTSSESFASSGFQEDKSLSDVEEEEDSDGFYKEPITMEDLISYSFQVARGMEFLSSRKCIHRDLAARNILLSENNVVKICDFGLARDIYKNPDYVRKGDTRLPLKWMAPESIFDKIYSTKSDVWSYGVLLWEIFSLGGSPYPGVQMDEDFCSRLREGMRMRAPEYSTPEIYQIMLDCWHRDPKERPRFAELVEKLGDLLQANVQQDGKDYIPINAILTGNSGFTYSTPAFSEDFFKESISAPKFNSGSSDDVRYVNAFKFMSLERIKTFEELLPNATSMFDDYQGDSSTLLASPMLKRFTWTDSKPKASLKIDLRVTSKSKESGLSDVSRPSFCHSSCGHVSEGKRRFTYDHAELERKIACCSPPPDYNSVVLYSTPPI

The first assay addresses Matrix metalloproteinase-9 (Homo sapiens, UniProt P14780). In kind it is cell-based.
Conditions: not given
Turning to `CCCCCCCCCc1ccc(O)cc1` [4-NONYLPHENOL], the IC50 entry was “Not Active”.

Consider `c1ccc2c(c1)cc1ccc3cccc4ccc2c1c34`, for which the IC50 entry is on record as “Not Active”.

As for `COc1ccc([C@@H]2Sc3ccccc3N(CCN(C)C)C(=O)[C@@H]2OC(C)=O)cc1` [DILTIAZEM], the IC50 result is “Not Active”.

`NCC(=O)O` [GLYCINE]: the IC50 result was “Not Active”.

The next assay concerns the target T1, B2 bradykinin receptor (Homo sapiens, UniProt P30411). Note: in other assays of this panel Not Active means under 50% inhibition at 10 µM.
T1 sequence (P30411 whole entry): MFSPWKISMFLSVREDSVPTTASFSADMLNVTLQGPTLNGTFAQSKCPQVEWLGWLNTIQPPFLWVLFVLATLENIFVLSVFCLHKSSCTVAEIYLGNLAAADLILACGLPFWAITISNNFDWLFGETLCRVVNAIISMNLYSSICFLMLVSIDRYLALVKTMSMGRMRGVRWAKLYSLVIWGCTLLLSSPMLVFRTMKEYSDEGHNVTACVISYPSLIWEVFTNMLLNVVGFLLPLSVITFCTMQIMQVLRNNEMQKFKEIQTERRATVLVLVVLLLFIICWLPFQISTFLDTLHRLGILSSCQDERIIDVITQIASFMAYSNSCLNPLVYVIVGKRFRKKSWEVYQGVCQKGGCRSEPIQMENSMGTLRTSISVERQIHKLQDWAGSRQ
The class given is cell membranes, Membrane. The conditions noted are these: chem-1.
Turning to `CCCCCCCCCc1ccc(O)cc1` [4-NONYLPHENOL], the IC50 entry is reported as “Not Active”.

As to `c1ccc2c(c1)cc1ccc3cccc4ccc2c1c34`, the IC50 entry is reported as “Not Active”.

Turning to `COc1ccc([C@@H]2Sc3ccccc3N(CCN(C)C)C(=O)[C@@H]2OC(C)=O)cc1` [DILTIAZEM], the IC50 entry was “Not Active”.

In the case of `NCC(=O)O` [GLYCINE], the IC50 entry was “Not Active”.

Test system in the next assay: not listed separately
Description: DRUGMATRIX: Serotonin (5-Hydroxytryptamine) 5-HT3 radioligand binding (ligand: [3H] GR-65630). In kind it is cell membranes, Membrane. The conditions noted are these: hek293; Not Active = under 50% inhibition at 10 µM.
`CCCCCCCCCc1ccc(O)cc1` [4-NONYLPHENOL]: the IC50 entry is “Not Active” and the Ki result is given as “Not Active”.

With `c1ccc2c(c1)cc1ccc3cccc4ccc2c1c34`, the IC50 entry is listed as “Not Active” and the Ki entry is listed as “Not Active”.

In the case of `COc1ccc([C@@H]2Sc3ccccc3N(CCN(C)C)C(=O)[C@@H]2OC(C)=O)cc1` [DILTIAZEM], the IC50 entry is given as “Not Active” and the Ki entry is given as “Not Active”.

On to `NCC(=O)O` [GLYCINE], for which the IC50 result is “Not Active” and the Ki entry was “Not Active”.

The next assay deals with T2, Progesterone receptor (Bos taurus, UniProt Q690N0).
T2 sequence (Q690N0 whole entry): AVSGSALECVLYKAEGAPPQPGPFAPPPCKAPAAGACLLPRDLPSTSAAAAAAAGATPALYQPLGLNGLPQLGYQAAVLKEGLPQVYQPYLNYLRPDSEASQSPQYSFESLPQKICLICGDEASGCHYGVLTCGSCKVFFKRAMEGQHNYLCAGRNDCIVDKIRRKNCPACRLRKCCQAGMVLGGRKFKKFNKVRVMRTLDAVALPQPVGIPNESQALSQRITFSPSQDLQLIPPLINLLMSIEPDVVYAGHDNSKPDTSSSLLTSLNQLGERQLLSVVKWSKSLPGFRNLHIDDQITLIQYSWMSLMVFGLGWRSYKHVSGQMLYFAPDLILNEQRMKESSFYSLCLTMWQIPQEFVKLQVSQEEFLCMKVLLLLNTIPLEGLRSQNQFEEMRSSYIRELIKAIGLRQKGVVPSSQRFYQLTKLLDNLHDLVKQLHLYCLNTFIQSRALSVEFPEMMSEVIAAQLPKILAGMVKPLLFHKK
Kind of assay: DRUGMATRIX: Progesterone radioligand binding (ligand: [3H] R-5020). In kind it is tissue-based, Uterus. The conditions noted are these: Not Active = under 50% inhibition at 10 µM.
Take `CCCCCCCCCc1ccc(O)cc1` [4-NONYLPHENOL]: the IC50 entry is recorded as “Not Active”.

On to `c1ccc2c(c1)cc1ccc3cccc4ccc2c1c34`, for which the IC50 entry was “Not Active”.

In the case of `COc1ccc([C@@H]2Sc3ccccc3N(CCN(C)C)C(=O)[C@@H]2OC(C)=O)cc1` [DILTIAZEM], the IC50 result is recorded as “Not Active”.

For the molecule `NCC(=O)O` [GLYCINE], the IC50 result was “Not Active”.

Another assay concerns the target T3, Alpha-1A adrenergic receptor (Rattus norvegicus, UniProt P43140).
T3 sequence (P43140 whole entry): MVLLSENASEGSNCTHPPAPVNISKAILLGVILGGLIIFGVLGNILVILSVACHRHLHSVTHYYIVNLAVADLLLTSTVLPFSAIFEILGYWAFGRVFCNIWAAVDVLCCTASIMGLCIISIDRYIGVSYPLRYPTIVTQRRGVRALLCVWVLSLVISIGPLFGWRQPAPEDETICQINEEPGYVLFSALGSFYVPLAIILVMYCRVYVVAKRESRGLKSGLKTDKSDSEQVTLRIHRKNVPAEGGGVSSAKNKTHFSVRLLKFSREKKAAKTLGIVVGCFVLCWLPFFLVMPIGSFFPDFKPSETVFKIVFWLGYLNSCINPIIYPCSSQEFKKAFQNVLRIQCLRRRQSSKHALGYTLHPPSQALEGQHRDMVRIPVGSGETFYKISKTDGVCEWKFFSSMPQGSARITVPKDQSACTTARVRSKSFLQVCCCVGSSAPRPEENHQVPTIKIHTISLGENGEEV
Description: DRUGMATRIX: Alpha-1A adrenergic receptor radioligand binding (ligand: prazosin). The conditions noted are these: Not Active = under 50% inhibition at 10 µM. In kind it is cell membranes, Wistar, Submaxillary gland, Membrane.
As for `CCCCCCCCCc1ccc(O)cc1` [4-NONYLPHENOL], the IC50 entry is listed as “Not Active”.

As to `c1ccc2c(c1)cc1ccc3cccc4ccc2c1c34`, the IC50 result is recorded as “Not Active”.

Consider `COc1ccc([C@@H]2Sc3ccccc3N(CCN(C)C)C(=O)[C@@H]2OC(C)=O)cc1` [DILTIAZEM], for which the IC50 result is on record as “Not Active”.

In the case of `NCC(=O)O` [GLYCINE], the IC50 entry is on record as “Not Active”.

A further assay deals with Mitogen-activated protein kinase 14 (Homo sapiens, UniProt Q16539). The arrangement: species or system Escherichia coli.
Sequence of Mitogen-activated protein kinase 14 (Q16539 whole entry): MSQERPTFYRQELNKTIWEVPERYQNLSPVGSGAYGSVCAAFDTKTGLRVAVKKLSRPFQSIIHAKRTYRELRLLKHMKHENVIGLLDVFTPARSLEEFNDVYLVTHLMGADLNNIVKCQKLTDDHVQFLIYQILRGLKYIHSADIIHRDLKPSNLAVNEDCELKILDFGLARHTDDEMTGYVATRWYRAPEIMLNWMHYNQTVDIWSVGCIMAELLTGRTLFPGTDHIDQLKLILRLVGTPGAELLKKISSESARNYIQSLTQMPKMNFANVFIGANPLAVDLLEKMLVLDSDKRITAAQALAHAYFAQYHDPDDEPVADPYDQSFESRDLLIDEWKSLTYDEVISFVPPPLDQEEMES
Conditions: not given
Regarding `CCCCCCCCCc1ccc(O)cc1` [4-NONYLPHENOL], the IC50 result was “Not Active”.

Take `c1ccc2c(c1)cc1ccc3cccc4ccc2c1c34`: the IC50 entry is reported as “Not Active”.

As for `COc1ccc([C@@H]2Sc3ccccc3N(CCN(C)C)C(=O)[C@@H]2OC(C)=O)cc1` [DILTIAZEM], the IC50 result is recorded as “Not Active”.

As for `NCC(=O)O` [GLYCINE], the IC50 entry was “Not Active”.

The target of the next assay is Protein kinase C alpha type (Homo sapiens, UniProt P17252). In kind it is cell-based. The conditions noted are these: sf9.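 Note: inhibition of PKCalpha kinase activity measured in an enzyme assay with histone as the phosphorylation substrate; in other assays of this panel Not Active means under 50% inhibition at 10 µM.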
As for `CCCCCCCCCc1ccc(O)cc1` [4-NONYLPHENOL], the IC50 entry is listed as “Not Active”.

In the case of `c1ccc2c(c1)cc1ccc3cccc4ccc2c1c34`, the IC50 entry is “Not Active”.

In the case of `COc1ccc([C@@H]2Sc3ccccc3N(CCN(C)C)C(=O)[C@@H]2OC(C)=O)cc1` [DILTIAZEM], the IC50 entry is listed as “Not Active”.

For the molecule `NCC(=O)O` [GLYCINE], the IC50 result was “Not Active”.

The target of another assay is T4, Muscarinic acetylcholine receptor M4 (Homo sapiens, UniProt P08173). Note: in other assays of this panel Not Active means under 50% inhibition at 10 µM.
T4 sequence (P08173 whole entry): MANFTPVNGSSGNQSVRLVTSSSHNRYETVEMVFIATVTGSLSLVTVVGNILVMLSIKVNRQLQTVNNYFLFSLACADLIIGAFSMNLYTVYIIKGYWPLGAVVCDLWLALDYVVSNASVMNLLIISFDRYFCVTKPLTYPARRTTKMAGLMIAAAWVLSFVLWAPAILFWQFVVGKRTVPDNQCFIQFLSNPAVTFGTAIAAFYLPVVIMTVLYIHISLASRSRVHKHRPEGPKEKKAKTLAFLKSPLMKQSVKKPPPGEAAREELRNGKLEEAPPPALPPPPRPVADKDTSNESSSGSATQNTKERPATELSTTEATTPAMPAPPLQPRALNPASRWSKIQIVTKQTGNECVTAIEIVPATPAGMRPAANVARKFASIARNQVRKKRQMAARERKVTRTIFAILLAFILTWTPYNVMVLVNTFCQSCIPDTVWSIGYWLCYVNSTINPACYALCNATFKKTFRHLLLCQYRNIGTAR
In kind it is cell membranes, CHO-K1, Membrane. The conditions noted are these: cho-k1.
`CCCCCCCCCc1ccc(O)cc1` [4-NONYLPHENOL]: the IC50 entry is “Not Active”.

`c1ccc2c(c1)cc1ccc3cccc4ccc2c1c34`: the IC50 entry is recorded as “Not Active”.

Take `COc1ccc([C@@H]2Sc3ccccc3N(CCN(C)C)C(=O)[C@@H]2OC(C)=O)cc1` [DILTIAZEM]: the IC50 result is “Not Active”.

With `NCC(=O)O` [GLYCINE], the IC50 result was “Not Active”.

The next assay concerns the target Vascular endothelial growth factor receptor 1 (Homo sapiens, UniProt P17948). The class given is cell-based. The conditions noted are these: huvec. Note: in other assays of this panel Not Active means under 50% inhibition at 10 µM.
As for `CCCCCCCCCc1ccc(O)cc1` [4-NONYLPHENOL], the IC50 result was “Not Active”.

As to `c1ccc2c(c1)cc1ccc3cccc4ccc2c1c34`, the IC50 result is listed as “Not Active”.

For `COc1ccc([C@@H]2Sc3ccccc3N(CCN(C)C)C(=O)[C@@H]2OC(C)=O)cc1` [DILTIAZEM], the IC50 entry is on record as “Not Active”.

Consider `NCC(=O)O` [GLYCINE], for which the IC50 result was “Not Active”.

A further assay addresses Delta-type opioid receptor (Homo sapiens, UniProt P41143). The class given is cell membranes, HEK293, Membrane. The conditions noted are these: hek293.
As for `CCCCCCCCCc1ccc(O)cc1` [4-NONYLPHENOL], the IC50 entry was “Not Active”.

For `c1ccc2c(c1)cc1ccc3cccc4ccc2c1c34`, the IC50 result is listed as “Not Active”.

Regarding `COc1ccc([C@@H]2Sc3ccccc3N(CCN(C)C)C(=O)[C@@H]2OC(C)=O)cc1` [DILTIAZEM], the IC50 result is given as “Not Active”.

Take `NCC(=O)O` [GLYCINE]: the IC50 entry was “Not Active”.

A further assay concerns the target Nitric oxide synthase 1 (Rattus norvegicus, UniProt P29476). In kind it is tissue-based, Cerebellum. Note: in other assays of this panel Not Active means under 50% inhibition at 10 µM.
Conditions: not given
With `CCCCCCCCCc1ccc(O)cc1` [4-NONYLPHENOL], the IC50 entry is given as “Not Active”.

Regarding `c1ccc2c(c1)cc1ccc3cccc4ccc2c1c34`, the IC50 result is recorded as “Not Active”.

For the molecule `COc1ccc([C@@H]2Sc3ccccc3N(CCN(C)C)C(=O)[C@@H]2OC(C)=O)cc1` [DILTIAZEM], the IC50 result was “Not Active”.

In the case of `NCC(=O)O` [GLYCINE], the IC50 result is reported as “Not Active”.

A further assay addresses Sigma non-opioid intracellular receptor 1 (Homo sapiens, UniProt Q99720). Kind of assay: DRUGMATRIX: Sigma1 radioligand binding (ligand: [3H] Haloperidol). The class given is cell membranes, Jurkat, Membrane. The conditions noted are these: jurkat; Not Active = under 50% inhibition at 10 µM.
For `CCCCCCCCCc1ccc(O)cc1` [4-NONYLPHENOL], the IC50 result is reported as “Not Active”.

On to `c1ccc2c(c1)cc1ccc3cccc4ccc2c1c34`, for which the IC50 entry is reported as “Not Active”.

In the case of `COc1ccc([C@@H]2Sc3ccccc3N(CCN(C)C)C(=O)[C@@H]2OC(C)=O)cc1` [DILTIAZEM], the IC50 result is recorded as “Not Active”.

As to `NCC(=O)O` [GLYCINE], the IC50 result is recorded as “Not Active”.
